In the OligoGym collection one finds target mRNA knockdown data, which are given here for 20 substances.

HELM strings list units from the 5' end as sugar, base in round brackets, then linkage (d deoxyribose, r ribose, m 2'-O-methyl, p phosphodiester). Strings are as the collection lists them, not checked against the first reports. ss, as = sense and antisense strand; [fl2r] = 2'-fluoro
Also: test system not given here.

The conditions of this data set: siRNA.
In turn, “RNA1{r(A)p.r(G)p.r(U)p.r(C)p.r(C)p.r(C)p.r(U)p.r(G)p.r(G)p.r(A)p.r(G)p.r(C)p.r(C)p.r(U)p.m(U)p.m(A)p.r(A)p.r(A)p.r(C)p.r(T)p.r(T)}|RNA2{r(G)p.r(U)p.r(U)p.r(U)p.m(A)p.r(A)p.r(G)p.r(G)p.r(C)p.r(U)p.r(C)p.r(C)p.r(A)p.r(G)p.r(G)p.r(G)p.r(A)p.r(C)p.r(U)p.r(T)p.r(T)}$$$RNA1{StrandType:ss}|RNA2{StrandType:as}$” displayed a target mRNA knockdown of 62%.

On to “RNA1{r(A)p.r(G)p.r(U)p.r(U)p.r(U)p.r(C)p.[fl2r](U)p.[fl2r](A)p.r(G)p.r(G)p.r(G)p.r(C)p.r(C)p.r(G)p.r(U)p.r(G)p.r(G)p.r(C)p.r(C)p.r(T)p.r(T)}|RNA2{r(G)p.r(G)p.r(C)p.r(C)p.r(A)p.r(C)p.r(G)p.r(G)p.r(C)p.r(C)p.r(C)p.[fl2r](U)p.r(A)p.r(G)p.r(A)p.r(A)p.r(A)p.r(C)p.r(U)p.r(T)p.r(T)}$$$RNA1{StrandType:ss}|RNA2{StrandType:as}$”, for which the target mRNA knockdown worked out at 82%.

Turning to “RNA1{r(A)p.r(G)p.r(U)p.r(U)p.r(U)p.r(C)p.[fl2r](U)p.r(A)p.r(G)p.r(G)p.r(G)p.r(C)p.r(C)p.r(G)p.[fl2r](U)p.r(G)p.r(G)p.r(C)p.r(C)p.r(T)p.r(T)}|RNA2{r(G)p.r(G)p.r(C)p.[fl2r](C)p.r(A)p.r(C)p.r(G)p.[fl2r](G)p.r(C)p.r(C)p.r(C)p.[fl2r](U)p.r(A)p.r(G)p.r(A)p.r(A)p.r(A)p.r(C)p.r(U)p.r(T)p.r(T)}$$$RNA1{StrandType:ss}|RNA2{StrandType:as}$”, the target mRNA knockdown is 85%.

“RNA1{r(A)p.r(U)p.m(A)p.r(C)p.r(U)p.r(U)p.r(G)p.r(G)p.r(C)p.r(G)p.r(G)p.r(G)p.r(C)p.r(U)p.r(C)p.r(U)p.r(U)p.r(U)p.r(C)p.r(T)p.r(T)}|RNA2{r(G)p.r(A)p.r(A)p.r(A)p.r(G)p.r(A)p.r(G)p.r(C)p.r(C)p.r(C)p.r(G)p.r(C)p.m(C)p.r(A)p.r(A)p.r(G)p.r(U)p.r(A)p.r(U)p.r(T)p.r(T)}$$$RNA1{StrandType:ss}|RNA2{StrandType:as}$”: the target mRNA knockdown came out at 72%.

“RNA1{r(A)p.r(U)p.m(C)p.r(A)p.m(C)p.r(A)p.r(A)p.r(A)p.r(C)p.r(C)p.r(C)p.r(C)p.m(U)p.r(A)p.r(G)p.r(A)p.r(G)p.r(G)p.r(G)p.r(T)p.r(T)}|RNA2{r(C)p.r(C)p.r(C)p.r(U)p.r(C)p.m(U)p.r(A)p.m(G)p.r(G)p.r(G)p.r(G)p.r(U)p.r(U)p.r(U)p.r(G)p.m(U)p.r(G)p.r(A)p.r(U)p.r(T)p.r(T)}$$$RNA1{StrandType:ss}|RNA2{StrandType:as}$” returned a target mRNA knockdown of 27%.

The substance “RNA1{r(A)p.r(U)p.m(C)p.r(A)p.m(C)p.r(A)p.r(A)p.r(A)p.r(C)p.r(C)p.r(C)p.r(C)p.m(U)p.r(A)p.r(G)p.r(A)p.r(G)p.r(G)p.r(G)p.r(T)p.r(T)}|RNA2{r(C)p.r(C)p.r(C)p.r(U)p.r(C)p.m(U)p.r(A)p.r(G)p.r(G)p.r(G)p.r(G)p.r(U)p.r(U)p.m(U)p.r(G)p.m(U)p.r(G)p.r(A)p.r(U)p.r(T)p.r(T)}$$$RNA1{StrandType:ss}|RNA2{StrandType:as}$” came in with a target mRNA knockdown of 75%.

In the case of “RNA1{r(A)p.r(U)p.m(C)p.r(A)p.m(C)p.r(A)p.r(A)p.r(A)p.r(C)p.r(C)p.r(C)p.r(C)p.r(U)p.r(A)p.r(G)p.r(A)p.r(G)p.r(G)p.r(G)p.r(T)p.r(T)}|RNA2{r(C)p.r(C)p.r(C)p.r(U)p.r(C)p.m(U)p.r(A)p.r(G)p.r(G)p.r(G)p.r(G)p.r(U)p.r(U)p.r(U)p.r(G)p.m(U)p.r(G)p.r(A)p.r(U)p.r(T)p.r(T)}$$$RNA1{StrandType:ss}|RNA2{StrandType:as}$”, the target mRNA knockdown was determined as 75%.

With “RNA1{r(A)p.r(U)p.m(C)p.r(A)p.r(G)p.r(A)p.r(G)p.r(G)p.r(G)p.r(A)p.r(G)p.r(G)p.r(U)p.r(C)p.r(U)p.m(U)p.r(A)p.r(G)p.r(A)p.r(T)p.r(T)}|RNA2{r(U)p.r(C)p.m(U)p.r(A)p.r(A)p.r(G)p.r(A)p.r(C)p.r(C)p.r(U)p.r(C)p.r(C)p.r(C)p.r(U)p.r(C)p.m(U)p.r(G)p.r(A)p.r(U)p.r(T)p.r(T)}$$$RNA1{StrandType:ss}|RNA2{StrandType:as}$”, the target mRNA knockdown amounted to 68%.

In the case of “RNA1{r(A)p.r(U)p.r(C)p.m(G)p.r(A)p.r(C)p.r(C)p.m(U)p.r(G)p.r(A)p.r(A)p.r(G)p.r(G)p.r(A)p.r(G)p.m(U)p.r(A)p.r(C)p.r(G)p.r(T)p.r(T)}|RNA2{r(C)p.r(G)p.m(U)p.r(A)p.r(C)p.r(U)p.r(C)p.r(C)p.r(U)p.r(U)p.m(C)p.r(A)p.r(G)p.r(G)p.r(U)p.r(C)p.r(G)p.r(A)p.r(U)p.r(T)p.r(T)}$$$RNA1{StrandType:ss}|RNA2{StrandType:as}$”, the target mRNA knockdown is 29%.

Turning to “RNA1{r(A)p.r(U)p.r(C)p.m(U)p.r(A)p.r(C)p.r(C)p.m(C)p.r(A)p.r(G)p.r(C)p.r(U)p.r(C)p.m(U)p.r(C)p.r(C)p.r(C)p.r(U)p.r(U)p.r(T)p.r(T)}|RNA2{r(A)p.r(A)p.r(G)p.r(G)p.r(G)p.r(A)p.r(G)p.r(A)p.r(G)p.r(C)p.m(U)p.r(G)p.r(G)p.r(G)p.m(U)p.r(A)p.r(G)p.r(A)p.r(U)p.r(T)p.r(T)}$$$RNA1{StrandType:ss}|RNA2{StrandType:as}$”, the target mRNA knockdown is 75%.

“RNA1{r(A)p.r(U)p.r(C)p.m(U)p.r(A)p.r(C)p.r(C)p.r(C)p.r(A)p.r(G)p.r(C)p.r(U)p.r(C)p.r(U)p.r(C)p.r(C)p.r(C)p.r(U)p.r(U)p.r(T)p.r(T)}|RNA2{r(A)p.r(A)p.r(G)p.r(G)p.r(G)p.r(A)p.r(G)p.r(A)p.r(G)p.r(C)p.r(U)p.r(G)p.r(G)p.r(G)p.m(U)p.r(A)p.r(G)p.r(A)p.r(U)p.r(T)p.r(T)}$$$RNA1{StrandType:ss}|RNA2{StrandType:as}$” came in with a target mRNA knockdown of 77%.

“RNA1{r(A)p.r(U)p.r(C)p.r(A)p.r(C)p.r(A)p.r(A)p.r(A)p.r(C)p.r(C)p.r(C)p.r(C)p.m(U)p.r(A)p.r(G)p.r(A)p.r(G)p.r(G)p.r(G)p.r(T)p.r(T)}|RNA2{r(C)p.r(C)p.r(C)p.r(U)p.r(C)p.m(U)p.r(A)p.r(G)p.r(G)p.r(G)p.r(G)p.r(U)p.r(U)p.r(U)p.r(G)p.r(U)p.r(G)p.r(A)p.r(U)p.r(T)p.r(T)}$$$RNA1{StrandType:ss}|RNA2{StrandType:as}$” registered a target mRNA knockdown of 29%.

In the case of “RNA1{r(A)p.r(U)p.r(C)p.r(A)p.r(G)p.r(A)p.r(G)p.r(G)p.r(G)p.r(A)p.r(G)p.r(G)p.r(U)p.r(C)p.r(U)p.m(U)p.r(A)p.r(G)p.r(A)p.r(T)p.r(T)}|RNA2{r(U)p.r(C)p.m(U)p.r(A)p.r(A)p.r(G)p.r(A)p.r(C)p.r(C)p.r(U)p.r(C)p.r(C)p.r(C)p.r(U)p.r(C)p.r(U)p.r(G)p.r(A)p.r(U)p.r(T)p.r(T)}$$$RNA1{StrandType:ss}|RNA2{StrandType:as}$”, the target mRNA knockdown is 69%.

Regarding “RNA1{r(A)p.r(U)p.r(C)p.r(C)p.m(U)p.r(G)p.m(C)p.r(A)p.r(G)p.r(A)p.r(A)p.m(G)p.r(A)p.r(A)p.r(G)p.r(C)p.r(C)p.r(U)p.r(C)p.r(T)p.r(T)}|RNA2{r(G)p.r(A)p.r(G)p.r(G)p.r(C)p.r(U)p.r(U)p.r(C)p.r(U)p.r(U)p.r(C)p.m(U)p.r(G)p.m(C)p.r(A)p.r(G)p.r(G)p.r(A)p.r(U)p.r(T)p.r(T)}$$$RNA1{StrandType:ss}|RNA2{StrandType:as}$”, the target mRNA knockdown stood at 50%.

“RNA1{r(A)p.r(U)p.r(C)p.r(C)p.m(U)p.r(G)p.m(C)p.r(A)p.r(G)p.r(A)p.r(A)p.r(G)p.r(A)p.r(A)p.r(G)p.r(C)p.r(C)p.r(U)p.r(C)p.r(T)p.r(T)}|RNA2{r(G)p.r(A)p.r(G)p.r(G)p.r(C)p.r(U)p.r(U)p.r(C)p.r(U)p.r(U)p.r(C)p.r(U)p.r(G)p.r(C)p.r(A)p.r(G)p.r(G)p.r(A)p.r(U)p.r(T)p.r(T)}$$$RNA1{StrandType:ss}|RNA2{StrandType:as}$”: the target mRNA knockdown worked out at 74%.

In turn, “RNA1{r(A)p.r(U)p.r(C)p.r(G)p.r(A)p.r(C)p.r(C)p.[fl2r](U)p.r(G)p.r(A)p.r(A)p.r(G)p.r(G)p.r(A)p.r(G)p.[fl2r](U)p.r(A)p.r(C)p.r(G)p.r(T)p.r(T)}|RNA2{r(C)p.r(G)p.[fl2r](U)p.r(A)p.r(C)p.r(U)p.r(C)p.r(C)p.r(U)p.r(U)p.[fl2r](C)p.r(A)p.r(G)p.r(G)p.r(U)p.r(C)p.r(G)p.r(A)p.r(U)p.r(T)p.r(T)}$$$RNA1{StrandType:ss}|RNA2{StrandType:as}$” gave a target mRNA knockdown of 46%.

In the case of “RNA1{r(A)p.r(U)p.r(C)p.r(G)p.r(A)p.r(C)p.r(C)p.m(U)p.r(G)p.r(A)p.r(A)p.r(G)p.r(G)p.r(A)p.r(G)p.m(U)p.r(A)p.r(C)p.r(G)p.r(T)p.r(T)}|RNA2{r(C)p.r(G)p.m(U)p.r(A)p.r(C)p.r(U)p.r(C)p.r(C)p.r(U)p.r(U)p.r(C)p.r(A)p.r(G)p.r(G)p.r(U)p.r(C)p.r(G)p.r(A)p.r(U)p.r(T)p.r(T)}$$$RNA1{StrandType:ss}|RNA2{StrandType:as}$”, the target mRNA knockdown worked out at 30%.

For the substance “RNA1{r(A)p.r(U)p.r(C)p.r(G)p.r(A)p.r(C)p.r(C)p.r(U)p.r(G)p.r(A)p.r(A)p.r(G)p.r(G)p.r(A)p.r(G)p.[fl2r](U)p.r(A)p.r(C)p.r(G)p.r(T)p.r(T)}|RNA2{r(C)p.r(G)p.r(U)p.[fl2r](A)p.r(C)p.r(U)p.r(C)p.r(C)p.r(U)p.r(U)p.r(C)p.r(A)p.r(G)p.r(G)p.r(U)p.r(C)p.r(G)p.r(A)p.r(U)p.r(T)p.r(T)}$$$RNA1{StrandType:ss}|RNA2{StrandType:as}$”, the target mRNA knockdown is 82%.

For “RNA1{r(A)p.r(U)p.r(C)p.r(G)p.r(C)p.[fl2r](U)p.r(G)p.r(C)p.[fl2r](U)p.r(C)p.r(C)p.[fl2r](U)p.r(C)p.r(C)p.r(U)p.r(C)p.r(C)p.r(U)p.r(C)p.r(T)p.r(T)}|RNA2{r(G)p.r(A)p.r(G)p.r(G)p.r(A)p.r(G)p.r(G)p.r(A)p.r(G)p.r(G)p.r(A)p.r(G)p.[fl2r](C)p.r(A)p.r(G)p.r(C)p.r(G)p.r(A)p.r(U)p.r(T)p.r(T)}$$$RNA1{StrandType:ss}|RNA2{StrandType:as}$”, the target mRNA knockdown was 69%.

Turning to “RNA1{r(A)p.r(U)p.r(C)p.r(G)p.r(C)p.[fl2r](U)p.r(G)p.r(C)p.r(U)p.r(C)p.r(C)p.r(U)p.r(C)p.r(C)p.r(U)p.r(C)p.r(C)p.r(U)p.r(C)p.r(T)p.r(T)}|RNA2{r(G)p.r(A)p.r(G)p.r(G)p.r(A)p.r(G)p.r(G)p.r(A)p.r(G)p.r(G)p.r(A)p.r(G)p.[fl2r](C)p.r(A)p.r(G)p.r(C)p.r(G)p.r(A)p.r(U)p.r(T)p.r(T)}$$$RNA1{StrandType:ss}|RNA2{StrandType:as}$”, the target mRNA knockdown is 71%.
